According to publication PMC12374861, “Synthetic Peptides Suppress Nervous Necrosis Virus Absorption and Improve Survival Rates in European Sea Bass” (Marine Biotechnology (New York, N.y.), 2025):
Ends that are not written are not given here.

What was measured:
[1] = system: SJNNV; format: cell-based, striped jack nervous necrosis virus (strain SJNag97); settings: virus (MOI 0.01) incubated with 500 μg/mL peptide for 15 min at 25 °C, titrated in E-11 cells; control virus + PBS; representative of two independent assays; Fig. 2B
Description: Parental RGNNV (strain It/411/96), SJNNV (strain SJNag97), and reassortant isolates (RGNNV/SJNNV, 367.2.2005; SJNNV/RGNNV, 389/I96) were used. Viruses were propagated in E − 11 cells cultured in L-15 Leibovitz medium (BioWest) supplemented with 5% FBS, 2 mM L-glutamine, and 100 IU/mL penicillin/streptomycin (Thermo Fisher Scientific) at 25 °C. Infected monolayers were incubated at 25 °C until extensive cytopathic effect (CPE) developed. Supernatants were then harvested, centrifuged, and titrated in triplicate using the end-point dilution method, expressed as TCID₅₀/mL (Reed and Müench [1938]).
For in vitro antiviral assays, viral cultures (MOI 0.01) from parental and reassortant strains were incubated with peptides (single or combined) using a non-lethal concentration previously tested (500 μg/mL; León et al. [2020]), for 15 min at 25 °C with gentle agitation. Controls were virus samples incubated with PBS (100% viral activity). Treated samples were titrated as previously. After medium removal, cells were exposed to ten-fold viral dilutions in 2% FBS. CPE was monitored daily for 10 days, and viral titres were calculated as TCID₅₀/mL (Reed and Müench [1938]) and expressed as viral titre or percent inhibition relative to controls.
Fig. 2 Designed peptides, single or combined, reduce the NNV absorption in vitro. NNV parental or reassortant genotypes were incubated with 500 μg/mL of the synthetic peptides for 15 min. Then, the viruses were titrated in the E − 11 cell line. Control samples consisted on virus incubated with the same amount of phosphate buffer saline. (A) Viral titer (TCID50/mL) and (B) % of virus inhibition with respect to the controls are represented. Data are representative of two independent assays. […] Each bar was matched to a substance by its colour and by the order of the legend.

[2] = system: E-11 cells; assay: MTT cytotoxicity test on E-11 cells; format: cell-based; settings: 24 h at 25 °C, mean of n = 3, control = 100.0
Description: Synthetic peptides cytotoxicity on E − 11 cells was assessed using the MTT (Sigma) test with serial peptide dilutions (1000–4 µg/mL in L − 15 medium; n = 3; 24 h at 25 °C) as elsewhere (Cervera et al. [2024c]). Absorbance was measured at 570 nm (BMG Labtech); blanks lacked cells. Cell viability was calculated as the OD ratio of treated to untreated cells × 100, normalized at 690 nm.
Supplementary data S4: Cell viability (%) of E-11 cells after incubation with the synthetic peptides for 24 h. Data represent the mean ± SEM (n=3).

[3] = system: RGNNV; assay: RGNNV in vivo bath challenge of European sea bass with peptide injection after infection; set-up: species or system European sea bass (Dicentrarchus labrax); settings: for Clinical signs of VER disease, severity score: four-rank scale 1-4, sea bass, RGNNV bath challenge, 1 µg peptide/g i.m., Fig. 4B; for Relative percent survival (RPS): juvenile sea bass, bath infection 3.16 × 10^4 TCID₅₀ RGNNV/mL for 2 h, then intramuscular injection 1 µg peptide/g, 23 dpi, infected PBS group 63.6% survival; for RGNNV rdrp gene expression in the brain: Fig. 5B
Description: RGNNV In vivo Challenge of European Sea Bass
A total of 375 sea bass were randomly assigned to eight experimental groups (in duplicate) and acclimated for 15 days. Seven groups were infected by immersion (10 L; 3.16 × 10^4 TCID₅₀ RGNNV/mL; 2 h), while a mock-infected control received conditioned medium. […] Combinations were selected according to the results obtained in the competitive in vitro assay against RGNNV (see below). Disease signs and mortalities were monitored daily for 23 days post-infection (dpi) using a four-rank scale (Valero et al. [2021a]). Fish (n = 6/group/time-point) were sampled at 2 and 23 dpi, euthanized with clove oil, bled, and weighed. Brain, NNV target tissue, and head-kidney, major hematopoietic tissue in fish, were dissected, frozen in TRIzol (Life Technologies), and stored at − 80 °C.
For viral load analysis, total RNA was extracted from sea bass brain and head-kidney using TRIzol (Life Technologies) and from E − 11 cells using the GenJET RNA Purification Kit (Thermo Fisher Scientific), following manufacturer protocols. One microgram of RNA was DNAse I-treated (1 U/µL; Thermo Scientific), and cDNA was synthesized using Superscript IV Reverse Transcriptase (Invitrogen). qPCR was performed on a QuantStudio 5 Flex (Applied Biosystems) to quantify cp, rdrp and mx genes using PowerUp SYBR Green reagents (Applied Biosystems). The protocol included a 95 °C hold, then 40 cycles (95 °C; 15 s) and 60 °C for 1 min. Relative expression was calculated using the 2^⁻ΔCt method (Livak and Schmittgen [2001]), with ef1a as the endogenous control. Primers (Supplementary Data S2) were validated by melting curve analysis and negative controls.
Fish mortality was analysed using Kaplan–Meier survival curves with log-rank (Mantel–Cox) tests for significance. Relative gene expression was evaluated by one-way ANOVA (p ≤ 0.05) followed by Tukey’s test. Viral kinetics were compared between P4-treated and untreated groups using Student’s t-test (p ≤ 0.05) at specific time points. All analyses were performed with IBM SPSS Statistics 20.
Fig. 4 Therapeutic administration of synthetic peptides improves survival and symptomatology in […] (RGNNV)-infected European sea bass juveniles. […] A mock-infected group was treated twice with only PBS. (A) Kaplan–Meier survival curves; (B) Heat-map representing the cumulated number of fish showing clinical signs of VER disease attending to their severity: (1) changes of the color of the skin, slower rhythm of swimming and/or slower reaction to external stimuli as feeding; (2) alterations in the swimming balance and/or erratic swimming spasms; (3) continuous erratic swimming; and (4) complete incapacity to keep balance, swim and/or move without external stimuli. VER, viral encephalopathy and retinopathy
Fig. 5 Therapeutic administration of synthetic peptides decreased viral loads in the brain without additional mx gene regulation in the sea bass juveniles head-kidney infected with red-spotted grouper nervous necrosis virus (RGNNV). […] A mock-infected group was treated twice with only PBS. (A–C) Transcription levels of RGNNV cp (A) and rdrp (B) genes in the brain and (C) mx gene in the head-kidney. Data represent the relative gene expression mean ± SEM (n = 6). Different letters indicate significant differences among groups according to the ANOVA (p < 0.05)

[4] = system: RGNNV; assay: RGNNV adsorption efficiency, progeny production and replication kinetics in P4 pre-treated E-11 cells; format: cell-based, red-spotted grouper nervous necrosis virus
Description: Based on in vivo results (see below), the P4 effect on RGNNV replication was further assessed by analysing viral adsorption efficiency and progeny production, as previously (Valero et al. [2021b]) with slight modifications. Intracellular and extracellular viral kinetics were examined using semi-confluent E − 11 monolayers in 12-well plates (Sarstedt) treated with P4 (500 µg/mL) for 24 h; untreated cells served as controls. After treatment, supernatants were removed, cells washed thrice, and infected with RGNNV (MOI 0.01) for 45 min. Residual inoculum was collected, and monolayers washed and overlaid with L-15 for incubation at 25 °C with daily CPE monitoring. Supernatants were collected at 8, 12, 24, and 48 h post-infection (hpi); cells were washed, scraped and stored. For extracellular kinetics, supernatants were collected until 168 hpi. All samples were clarified by centrifugation (2000 × g, 10 min). Titrations were performed for: (i) total inoculated virus (TIV), (ii) non-attached virus (NAV), and (iii) viral progeny (VP). Assays were conducted in triplicate.
Formulas used for impact of synthetic peptides on RGNNV replication in vitro assay are the following: • AbsorbedvirusAV=TIV-NAV • AdsorptionefficacyAE=AV/TIV×100 • Productionrate(PR)=VP/AV • Relativeratioofproduction(RRP)=PRP4+RGNNV/PRRGNNV
Fig. 3 The pre-treatment with P4 synthetic peptide partially disrupts the replication of RGNNV in vitro. (A) Intracellular replication kinetics; (B) Viral production in cell supernatants; and (C, D) Genome synthesis in cell lysates by means of transcriptional levels of rdrp (C) and cp (D) genes. Monolayers of E-11 were incubated with 500 µg/mL of P4 or untreated for 24 h and then infected with […] nervous necrosis virus (RGNNV) (n = 3). Supernatants and cell lysates were collected at 8, 12, 24, 48 h post-infection (hpi). Additionally, supernatants were sampled at 168 hpi for extracellular replication kinetic analysis. Infectious titers were determined by the end-point titration method (Reed and Müench [1938]) and expressed as mean Log10 TCID50/mL ± standard error of the mean (SEM). Relative expression was presented as the mean ± SEM (n = 3). Asterisks indicate significant differences among groups according to the Student-t test (p < 0.05)

[5] = qPCR relative to ef1a, 2 dpi, n = 6, 1 µg peptide/g i.m. after RGNNV bath challenge

Substance	% of virus inhibition with respect to the controls, SJNNV [1] [%]	Viability (%) of E-11 cells, mean ([2]; peptide 0.00411 mg/mL) [%]	Viability (%) of E-11 cells, mean ([2]; peptide 0.01234 mg/mL) [%]	Viability (%) of E-11 cells, mean ([2]; peptide 0.03704 mg/mL) [%]	Viability (%) of E-11 cells, mean ([2]; peptide 0.11111 mg/mL) [%]	Viability (%) of E-11 cells, mean ([2]; peptide 0.33333 mg/mL) [%]	Viability (%) of E-11 cells, mean ([2]; peptide 1.00000 mg/mL) [%]	Clinical signs of VER disease, severity score [3]	Relative percent survival (RPS) [3] [%]	RGNNV rdrp gene expression in the brain [3, 5]	RGNNV cp gene expression in the brain ([3]; qPCR relative to ef1a, 2 dpi, n = 6, 1 µg peptide/g i.m. after RGNNV bath challenge, Fig. 5A)	AE, adsorption efficiency ([4]; AE = AV/TIV × 100, E-11 cells pre-treated with P4 500 µg/mL 24 h, untreated cells 99.05%) [%]	Intracellular viral replication titre at 48 h post-infection ([4]; E-11 cells pre-treated with P4 500 µg/mL 24 h, RGNNV, cell lysates, 48 hpi, untreated cells 2.40 × 10⁶, n = 3, Fig. 3A)	Viral release in cell supernatants at 48 h post-infection ([4]; E-11 cells pre-treated with P4 500 µg/mL 24 h, RGNNV, supernatants, 48 hpi, untreated cells 6.77 × 10^4, n = 3, Fig. 3B)	Viral progeny (VP) ([4]; E-11 cells pre-treated with P4 500 µg/mL 24 h, then RGNNV MOI 0.01, untreated cells 1.40 × 10^8)	Attached virus (AV), Log ± SEM ([4]; E-11 cells pre-treated with P4 500 µg/mL for 24 h, then RGNNV MOI 0.01 for 45 min, triplicate)	Attached virus (AV) ([4]; E-11 cells pre-treated with P4 500 µg/mL for 24 h, washed, infected with RGNNV MOI 0.01 for 45 min, AV = TIV − NAV, triplicate, untreated cells 9.20 × 10^5 in Table 2)	PR, production rate ([4]; PR = VP/AV, P4 pre-treated E-11 cells, untreated cells 151.57)	RRP, relative ratio of production ([4]; RRP = PR(P4+RGNNV)/PR(RGNNV))
TTKAANPQPRRRANNRRRS-NH2 [Peptide P1]	90	123.5	129.9	100.1	96.6	109.3	91.5	–	–	–	–	–	–	–	–	–	–	–	–
SVRLSVPSLETPEETTA-NH2 [Peptide P7]	90	149.6	125.7	138.9	116.6	119.8	131.6	≤ 4	68.8	effectively blocked	–	–	–	–	–	–	–	–	–
PDPTDNDHTFD-NH2 [Peptide P4]	–	87.4	102.6	92.4	110.6	100.5	106.4	1	81.3	lowered	lowered	98.99	1.64 × 10^4 TCID₅₀/mL	3.36 × 10^3 TCID₅₀/mL	2.46 × 10^7 TCID50/mL	5.96 ± 0.005	9.21 × 10^5 TCID50/mL	26.76	0.18
ALQATRGAVVAKWW-NH2 [Peptide P5]	–	126.6	116.7	116.4	122.7	104.3	115.8	–	–	–	–	–	–	–	–	–	–	–	–
LLWTSSGKEQR-NH2 [Peptide P6]	90	157.5	139.2	138.9	152.9	146.5	128.1	–	–	–	–	–	–	–	–	–	–	–	–
